According to US9433687B2, “Anti-Notch3 antibodies and antibody-drug conjugates” (Pfizer Inc., priority 2012, dated 2016):

How the values were obtained:
[1] = system: 37622A1 NSCLC patient-derived xenografts; experiment: 37622A1 patient derived NSCLC xenograft model; format: in vivo, mouse; settings: 5 mg/kg Q4dx4
Text: The effects of anti-Notch3 ADCs were examined in immunodeficient mice on the in vivo growth of human tumor xenografts that were established from fragments of freshly resected 37622A1 NSCLC tumors obtained in accordance with appropriate consent procedures (Asterand). The 37622A1 NSCLC patient-derived xenografts were subcutaneously passaged in vivo as fragments from animal to animal in nude (Nu/Nu) female mice. When the tumors reached a volume of 150 to 300 mm^3, they were staged to ensure uniformity of the tumor size among various treatment groups. The 37622A1 NSCLC patient-derived xenografts model was dosed intravenously four times every four days (Q4d×4) with PBS vehicle, humanized anti-Notch3 ADCs, control huNeg-8.8 ADCs and cisplatin at the doses provided in Table 19.

[2] = system: N87 gastric xenografts; experiment: N87 gastric xenograft model; format: in vivo, mouse; settings: for tumor volume: dose 5 mg/kg intravenously Q4d×4
Method: Similar in vivo experiments were performed with the N87 gastric cancer cell line as described above. To generate xenografts, nude (Nu/Nu) female mice were implanted subcutaneously with 8×10^6 N87 cells in 50% Matrigel (BD Biosciences).
The N87 gastric model was also dosed intravenously Q4d×4 with PBS vehicle, rat-human chimeric anti-Notch3 ADCs and control huNeg-8.8 ADCs, at a dose of 5 mg/kg as provided in FIG. 16D.
The N87 gastric model was also dosed intravenously Q4d×4 with PBS vehicle and rat-human chimeric anti-Notch3 ADCs ch28-mc0131, ch75-mc0131, ch28-m(H2O)c-0131 and ch75-m(H2O)c-0131 at a dose of 5 mg/kg as provided in FIG. 16E.

[3] = target: T1, human Notch2 NRR-Fc (Homo sapiens, UniProt Q04721); experiment: Binding to Notch2 NRR-Fc; settings: N/B = non-binding
T1 construct: Expression constructs encoding human Notch1 and Notch2 NRR regions, fused with human IgG1 Fc fragments; made in house; host or cells: CHO-PACE cells
T1 sequence (Q04721 1425-1677 limits assumed): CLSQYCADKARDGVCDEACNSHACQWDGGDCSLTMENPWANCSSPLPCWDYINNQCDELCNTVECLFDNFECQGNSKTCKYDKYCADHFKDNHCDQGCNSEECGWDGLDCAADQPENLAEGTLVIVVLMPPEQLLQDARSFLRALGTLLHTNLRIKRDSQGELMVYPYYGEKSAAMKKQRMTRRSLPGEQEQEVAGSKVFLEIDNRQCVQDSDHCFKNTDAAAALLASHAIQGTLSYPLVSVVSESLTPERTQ
Text: Other members of the Notch receptor family play important roles in biological processes. For example, a Notch1 or Notch2 deficiency leads to embryonic death in mouse models. In contrast, a Notch4 deficiency results in no detectable phenotype in mouse models. The closest homologues of the Notch3 NRR region are Notch1 and Notch2 (˜50% homology), and Notch4 is a more distant homologue (˜30% homology). Cross-reactivity of anti-Notch3 antibodies to other members of the Notch family, especially Notch1 and 2, may lead to undesired effects in patients. Therefore, the potential cross-reactivity of r28 and hu28, along with r75 and hu75 to other Notch family members were assessed.
Expression constructs encoding human Notch1 and Notch2 NRR regions, fused with human IgG1 Fc fragments were stably introduced into CHO-PACE cells. Conditioned media from these cells expressing NRR-Fc fusions were collected. Human Notch2 NRR-Fc and human Notch1 NRR-Fc were purified by protein A affinity followed by size exclusion chromatography (SEC). Purified preparations were dialysed into TBS with 1 mM CaCl2 and analyzed on analytical SEC to be >99% in purity.

[4] = system: HCC2429 (lung cancer); experiment: In vitro cytotoxicity (MTS), HCC2429; format: cell-based, human; settings: Table 13; four days; LP = lacked potency
Method: (§1) The effects of anti-Notch3 ADCs were assessed on 1) cell lines endogenously expressing Notch3 protein: HCC2429 (lung cancer), OVCAR3 (ovarian cancer) and MDA-MB-468 (breast cancer), 2) cell lines engineered to over-express full length human Notch3 protein: MDA-MB-468/hNotch3 and U2OS/hNotch3, and 3) a negative control cell line (SW900) using an MTS cellular viability indicator (Promega, Madison, Wis.). These cell lines were cultured with increasing concentrations of anti-Notch3 ADCs comprising rat-human chimeric anti-Notch3 antibodies, ch28 and ch75, and humanized anti-Notch3 antibodies, hu28 and hu75, conjugated to various linker-payload combinations of the present invention. As a specificity control for the anti-Notch3-ADCs, non-targeted control-ADCs (huNeg8.8-ADCs or ch2H6-ADCs) were also tested on the same cell lines. After four days, viability of each culture was assessed. IC50 values were calculated by logistic non-linear regression, model #203 with XL fit v4.2 (IDBS, Guildford, Surry, UK) and presented as ng Ab/mL. The drug antibody ratio (DAR) is also provided.
(§2) This process generated the anti-Notch3 cysteine mutant ADCs: hu28-(L443C)-vc0101 and hu28-(L443C/κK183C)-vc0101. The activity of the anti-Notch3 cysteine mutant ADCs were assessed on cell lines endogenously expressing Notch3 protein: HCC2429 (lung cancer) and OVCAR3 (ovarian cancer) using an MTS cellular viability indicator as described in previous Examples.

[5] = system: OVCAR3 (ovarian cancer); experiment: In vitro cytotoxicity (MTS), OVCAR3; format: cell-based, human; settings: Table 13; four days; LP = lacked potency
Method: as §1, §2

[6] = system: MDA-MB-468 (breast cancer); experiment: In vitro cytotoxicity (MTS), MDA-MB-468; format: cell-based, human; settings: Table 13; four days; LP = lacked potency
Method: as §1

[7] = target: T2, MDA-MB-468/hNotch3 (Homo sapiens, UniProt Q9UM47); experiment: In vitro cytotoxicity (MTS), MDA-MB-468/hNotch3; format: cell-based; settings: Table 13; four days; LP = lacked potency
T2 construct: cell lines engineered to over-express full length human Notch3 protein: MDA-MB-468/hNotch3 and U2OS/hNotch3; expressed in transfected cells; host or cells: MDA-MB-468
T2 sequence (Q9UM47 40-2321): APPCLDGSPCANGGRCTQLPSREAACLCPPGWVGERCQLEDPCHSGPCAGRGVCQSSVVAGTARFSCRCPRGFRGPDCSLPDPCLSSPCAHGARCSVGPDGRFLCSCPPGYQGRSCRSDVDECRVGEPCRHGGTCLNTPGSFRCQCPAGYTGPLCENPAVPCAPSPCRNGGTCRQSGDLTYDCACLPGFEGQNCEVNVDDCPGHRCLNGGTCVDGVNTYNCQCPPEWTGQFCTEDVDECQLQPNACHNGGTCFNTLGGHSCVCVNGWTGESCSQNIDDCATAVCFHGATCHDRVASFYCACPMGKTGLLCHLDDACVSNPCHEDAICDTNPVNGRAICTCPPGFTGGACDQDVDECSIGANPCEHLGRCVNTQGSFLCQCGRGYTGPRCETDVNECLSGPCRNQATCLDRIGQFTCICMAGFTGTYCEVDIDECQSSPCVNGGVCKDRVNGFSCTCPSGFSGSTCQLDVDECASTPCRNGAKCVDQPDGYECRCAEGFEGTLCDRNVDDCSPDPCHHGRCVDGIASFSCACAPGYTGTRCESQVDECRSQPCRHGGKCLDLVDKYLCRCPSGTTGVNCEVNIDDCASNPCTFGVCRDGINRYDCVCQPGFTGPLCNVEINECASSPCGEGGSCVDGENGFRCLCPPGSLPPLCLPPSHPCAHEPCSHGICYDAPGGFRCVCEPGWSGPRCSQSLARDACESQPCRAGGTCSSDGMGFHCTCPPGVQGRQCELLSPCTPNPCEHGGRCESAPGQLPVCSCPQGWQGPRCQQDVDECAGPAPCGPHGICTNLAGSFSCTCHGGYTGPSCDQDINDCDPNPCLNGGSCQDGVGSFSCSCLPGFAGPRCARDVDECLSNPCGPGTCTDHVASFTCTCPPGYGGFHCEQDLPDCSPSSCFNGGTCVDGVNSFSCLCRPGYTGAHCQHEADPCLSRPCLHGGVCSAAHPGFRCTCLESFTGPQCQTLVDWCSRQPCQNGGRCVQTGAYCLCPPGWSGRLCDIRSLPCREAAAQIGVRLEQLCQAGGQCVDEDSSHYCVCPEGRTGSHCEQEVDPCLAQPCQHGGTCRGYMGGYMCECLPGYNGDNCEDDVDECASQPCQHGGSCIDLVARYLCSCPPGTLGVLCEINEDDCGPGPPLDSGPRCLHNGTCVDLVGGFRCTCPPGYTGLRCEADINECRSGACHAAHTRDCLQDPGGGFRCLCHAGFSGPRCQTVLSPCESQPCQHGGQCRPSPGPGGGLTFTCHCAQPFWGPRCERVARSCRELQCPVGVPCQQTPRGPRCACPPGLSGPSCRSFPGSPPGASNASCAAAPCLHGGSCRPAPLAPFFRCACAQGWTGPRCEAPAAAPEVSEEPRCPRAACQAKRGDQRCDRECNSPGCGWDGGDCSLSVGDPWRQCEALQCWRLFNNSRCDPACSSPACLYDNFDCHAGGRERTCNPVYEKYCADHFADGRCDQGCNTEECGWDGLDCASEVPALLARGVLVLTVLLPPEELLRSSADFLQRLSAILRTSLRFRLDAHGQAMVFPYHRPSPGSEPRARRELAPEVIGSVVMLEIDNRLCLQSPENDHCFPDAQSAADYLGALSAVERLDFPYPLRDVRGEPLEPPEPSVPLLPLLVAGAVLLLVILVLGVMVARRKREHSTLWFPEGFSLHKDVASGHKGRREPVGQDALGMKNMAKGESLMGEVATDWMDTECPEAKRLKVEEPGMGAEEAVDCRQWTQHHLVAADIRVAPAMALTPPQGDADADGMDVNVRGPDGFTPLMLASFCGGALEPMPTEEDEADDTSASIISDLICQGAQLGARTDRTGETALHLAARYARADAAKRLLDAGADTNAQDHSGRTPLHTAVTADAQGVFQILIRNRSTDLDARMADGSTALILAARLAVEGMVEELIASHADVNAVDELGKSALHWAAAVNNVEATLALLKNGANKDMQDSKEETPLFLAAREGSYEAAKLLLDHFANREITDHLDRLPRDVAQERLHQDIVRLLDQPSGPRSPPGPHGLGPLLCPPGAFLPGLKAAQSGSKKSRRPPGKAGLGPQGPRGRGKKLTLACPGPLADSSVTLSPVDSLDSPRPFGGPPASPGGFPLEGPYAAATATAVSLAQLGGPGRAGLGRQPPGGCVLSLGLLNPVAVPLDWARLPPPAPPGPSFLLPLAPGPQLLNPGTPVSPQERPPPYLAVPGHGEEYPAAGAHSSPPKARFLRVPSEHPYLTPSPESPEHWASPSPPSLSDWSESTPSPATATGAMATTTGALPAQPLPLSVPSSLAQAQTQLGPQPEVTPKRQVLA
Method: as §1

For `N.N.[Cl][Pt][Cl]` [Cisplatin, reference compound], the tumor volume ([1]; Day 4) was 226 mm^3, the tumor volume ([1]; Day 7) was 280 mm^3 and the tumor volume ([1]; Day 11) was 301 mm^3. For the same molecule, the tumor volume ([1]; Day 14) was 345 mm^3, the tumor volume ([1]; Day 18) was 309 mm^3 and the tumor volume ([1]; Day 21) was 373 mm^3. It also gave a tumor volume ([1]; Day 25) of 401 mm^3, a tumor volume ([1]; Day 28) of 446 mm^3 and a tumor volume ([1]; Day 32) of 482 mm^3. For the same molecule, the tumor volume ([1]; Day 35) was 587 mm^3, the tumor volume ([1]; Day 39) was 591 mm^3 and the tumor volume ([1]; Day 42) was 612 mm^3. It also gave a tumor volume ([1]; Day 46) of 723 mm^3, a tumor volume ([1]; Day 49) of 853 mm^3 and a tumor volume ([1]; Day 53) of 970 mm^3. For the same molecule, the tumor volume ([1]; Day 56) was 1215 mm^3, the tumor volume ([1]; Day 60) was 1428 mm^3 and the tumor volume ([1]; Day -1) was 185 mm^3. The tumor volume ([2]; DAY 0) was 328 mm^3, the tumor volume ([2]; DAY 4) was 414 mm^3 and the tumor volume ([2]; DAY 7) was 520 mm^3. For the same molecule, the tumor volume ([2]; DAY 11) was 501 mm^3 and the tumor volume ([2]; DAY 14) was 637 mm^3.

B1: r28: parental rat anti-Notch3 antibody clone 28 (VH SEQ ID NO: 5, VL SEQ ID NO: 7) (antibody, V domains shown)
VH: EVQLVESGGGLVQPGRSLTLSCVASGFTFRDYGMTWIRQAPGKGLTWVAYISSGSNYIYYAEAVKGRFTISRDNAKNTLYLQMTSLRSEDTALYFCTRRGPFVLDAWGQGASVTVSS
VL: DIQMTQSPSFLSASVGDRVTINCKASQSINRYLHWFQQKLGEAPKLLIYNANGLQTGIPSRFSGSGSGTDFTLTISSLQSEDVATYFCLQHNTWPDTFGAGTKLELK
B1 was tested, and the “Binding to Notch2 NRR-Fc” value [3] was “lacked detectable binding”.

B2: ch28-mc0131 (conjugate)
VH: EVQLVESGGGLVQPGRSLTLSCVASGFTFRDYGMTWIRQAPGKGLTWVAYISSGSNYIYYAEAVKGRFTISRDNAKNTLYLQMTSLRSEDTALYFCTRRGPFVLDAWGQGASVTVSS
VL: DIQMTQSPSFLSASVGDRVTINCKASQSINRYLHWFQQKLGEAPKLLIYNANGLQTGIPSRFSGSGSGTDFTLTISSLQSEDVATYFCLQHNTWPDTFGAGTKLELK
In the case of B2, the “IC50 (ng Ab/mL) ± S.E.M., HCC2429” value [4] is reported as 251 ± 77.5 ng Ab/mL, the “IC50 (ng Ab/mL) ± S.E.M., OVCAR3” value [5] is reported as 6 ± 1.0 ng Ab/mL and the “IC50 (ng Ab/mL) ± S.E.M., MDA-MB-468” value [6] is reported as 35 ± 18.5 ng Ab/mL. For the same molecule, the “growth of N87 gastric xenografts” value ([2]; 5 mg/kg iv Q4dx4, FIG. 16D, 16E) was “inhibited growth of N87 gastric xenografts”.

B3: r75: parental rat anti-Notch3 antibody clone 75 (VH SEQ ID NO: 9, VL SEQ ID NO: 11) (antibody, V domains shown)
VH: QVKLLQSGAALVKPGASVKMSCKASGYAFTDYWVTWVKQSHGKSLEWIGEISPNSGGTNFNEKFKGKATLTVDKSTSTAYMELSRLTSEDSAIYYCTRGEIRYNWFAYWGQGTLVTVSS
VL: DIQMTQSPSSLSASVGDRVTITCKASQNVGNNIAWYQQKPGKAPKLLIYYASNRYTGVPSRFSGSGYGTDFTLTISSLQPEDFATYYCQRLYNSPFTFGGGTKVEIK
In the case of B3, the “Binding to Notch2 NRR-Fc” value [3] is reported as “lacked detectable binding”.

B4: ch75-vc0101: ch75 conjugated to vc0101 linker-payload (conjugate)
VH: QVKLLQSGAALVKPGASVKMSCKASGYAFTDYWVTWVKQSHGKSLEWIGEISPNSGGTNFNEKFKGKATLTVDKSTSTAYMELSRLTSEDSAIYYCTRGEIRYNWFAYWGQGTLVTVSS
VL: DIQMTQSPSSLSASVGDRVTITCKASQNVGNNIAWYQQKPGKAPKLLIYYASNRYTGVPSRFSGSGYGTDFTLTISSLQPEDFATYYCQRLYNSPFTFGGGTKVEIK
For B4, the “IC50 (ng Ab/mL) ± S.E.M., HCC2429” value [4] was 2112 ± 826.0 ng Ab/mL, the “IC50 (ng Ab/mL) ± S.E.M., MDA-MB-468” value [6] was 4064 ± 1793.9 ng Ab/mL and the “IC50 (ng Ab/mL) ± S.E.M., MDA-MB-468/hNotch3” value [7] was 24 ± 4.0 ng Ab/mL.

B5: ch75-vc6780 (conjugate)
VH: QVKLLQSGAALVKPGASVKMSCKASGYAFTDYWVTWVKQSHGKSLEWIGEISPNSGGTNFNEKFKGKATLTVDKSTSTAYMELSRLTSEDSAIYYCTRGEIRYNWFAYWGQGTLVTVSS
VL: DIQMTQSPSSLSASVGDRVTITCKASQNVGNNIAWYQQKPGKAPKLLIYYASNRYTGVPSRFSGSGYGTDFTLTISSLQPEDFATYYCQRLYNSPFTFGGGTKVEIK
With B5 the “IC50 (ng Ab/mL) ± S.E.M., HCC2429” value [4] was 1004 ± 177.0 ng Ab/mL, the “IC50 (ng Ab/mL) ± S.E.M., OVCAR3” value [5] was 922 ng Ab/mL and the “IC50 (ng Ab/mL) ± S.E.M., MDA-MB-468” value [6] was 6873 ± 4230.0 ng Ab/mL. The “IC50 (ng Ab/mL) ± S.E.M., MDA-MB-468/hNotch3” value [7] was 21 ± 3.5 ng Ab/mL.
